Source: patent US6228889A, “Methods for treatment of conditions associated with lactosylceramide” (priority 1999, dated 2001)
Where a name gives a salt, the structure may show the parent alone. Read-outs that look alike come from different tables or passages of the source.

Key:
[1] = tested on: Mac-1 (CD11b/CD18); conditions: for Mac-1 expression on PMNs, other GSL: 100 nmol/L, 20 minutes
[2] = tested on: intimal proliferation; assay: Intimal proliferation following balloon angioplasty in rabbits (aorta histology); type: in vivo; conditions: rabbit aorta; 10 mg/kg intramuscular daily for six weeks after balloon angioplasty
Text: A rabbit model of restenosis accompanying an invasive surgical procedure such as balloon angioplasty is preferred. One suitable protocol involves administering to the rabbit a suitable vehicle or vehicle combined with one or more GalT-2 inhibitor compounds of interest. The amount of the GalT-2 inhibitor compound administered will vary depending on several parameters including the extent of damage associated with the surgical procedure of interest. In instances where balloon angioplasty is employed, the rabbit will typically receive a candidate GalT-2 inhibitor compound in a dose (e.g., i.m. or i.p.) of between about 0.5 to 100, preferably 1 to 20 and more preferably about 10 mg/kg body weight of the rabbit. A preferred dosage schedule provides for administration of a GalT-2 inhibitor compound starting 24 hurs prior to conducting an invasive surgical procedure, and then continuing administration of the GalT-2 inhibitor compound for 15 days following the surgical procedure. In other protocols, daily injections of the GalT-2 inhibitor compound may be made for about 2 to 12 weeks following the invasive surgical procedure. […] Subsequently, the rabbits are euthanized and a vessel removed for examination, preferably the aorta The vessel is then fixed with formalin and analyzed for proliferation of vascular endothelia, media and advantitia using standard histological procedures. […]

[3] = tested on: vascular cells; conditions: reported in literature; cited from earlier work
[4] = tested on: GalT-2; assay: GalT-2 activity in endothelial cells; type: cell-based, human
Method: Particularly preferred are GalT-2 assays conducted with the ASMCs and performed in accordance with previously described methods. See e.g., Chatterjee, S., and Castiglione, E. (1987) Biochem. Biophys. Acta, 923:136; and Chatterjee, (1991) S. Biochem. Biophys. Res Comm., 181:554.
Another preferred assay of the invention includes the following steps a) through d):
a) culturing a population of LacCer-responsive cells preferably to confluency in lipoprotein-deficient serum medium, e.g., about 1 mg lipoprotein-deficient serum/protein/ml of medium or less;
b) harvesting the cells preferably in a suitable dispersive buffer, e.g., cacodylate buffer,
c) incubating the harvested cells preferably with a detectably labeled molecule such as a detectably-labeled nucleoside diphosphate sugar donor such as [^14 C]-UDP-galactose typcially in an amount between about 0. 1 to 100 μCi; and
d) measuring LacCer formation as indicative of the activity of the GalT-2 enzyme.

[5] = tested on: GalT-2; assay: GalT-2 activity in thoracic aorta of balloon angioplasty rabbits; type: in vivo; conditions: rabbit thoracic aorta; 10 mg/kg intramuscular, 15 days
Method: (§1) Experiments were performed on rabbits to examine the effects of D-PDMP on aortic stenosis following balloon angioplasty. The rabbits were given intramuscular injection of D-PDMP (10 mg/kg) or vehicle 24 hours prior to balloon angioplasty and this regimen was continued for 15 days. Next, the thoracic aorta was harvested, the glycosphingolipids was measured by HPLC analysis, and GalT-2 activity was measured employing assays described above.

[6] = tested on: ICAM-1; conditions: for effect on LacCer mediated stimulation of ICAM-1 expression: 5 μM LacCer 4 hours, DPI 10 μM 30 minutes, NAC 15 mM 30 minutes, PDTC 100 μM 1 hour
[7] = target: T1, GlcT-1 (Homo sapiens, UniProt Q16739); conditions: reported in literature; cited from earlier work
T1 sequence (Q16739 1-394): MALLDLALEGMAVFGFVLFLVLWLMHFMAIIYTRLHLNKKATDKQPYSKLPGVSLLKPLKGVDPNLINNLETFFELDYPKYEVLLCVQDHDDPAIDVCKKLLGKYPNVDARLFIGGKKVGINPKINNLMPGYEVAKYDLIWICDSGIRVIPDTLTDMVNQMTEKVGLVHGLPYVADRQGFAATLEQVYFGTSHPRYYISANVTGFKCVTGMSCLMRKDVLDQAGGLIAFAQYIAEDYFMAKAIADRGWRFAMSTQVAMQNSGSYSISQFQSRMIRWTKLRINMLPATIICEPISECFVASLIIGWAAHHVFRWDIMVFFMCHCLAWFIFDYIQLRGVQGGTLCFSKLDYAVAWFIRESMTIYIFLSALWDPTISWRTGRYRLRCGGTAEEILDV

[8] = tested on: GlcCer, LacCer; assay: Glycosphingolipid levels (HPLC) in thoracic aorta of balloon angioplasty rabbits; type: in vivo; conditions: rabbit thoracic aorta
Method: as §1

[9] = tested on: Eahy 926 cells; assay: Superoxide production by intact Eahy 926 (lucigenin chemiluminescence); type: cell-based, human; conditions: 5 μM LacCer; DPI 10 μM 30 minutes, NAC 15 mM 30 minutes, SOD exogenously added (200 U/ml), allopurinol
[10] = tested on: PMNs; assay: ROM generation by PMNs (DCFH-DA); type: cell-based, human; conditions: 100 or 200 nmol/L LacCer
[11] = tested on: neutrophil adhesion to Eahy 926 cells; assay: Confocal microscopic study of adhesion of human neutrophils to Eahy 926 endothelial cells; type: cell-based; conditions: endothelial cells preincubated with 10 μM DPI or 15 mM NAC 30 minutes, then 5 μM LacCer 4 hours
[12] = tested on: NADPH oxidase
[13] = tested on: PMNs; assay: Superoxide generation in PMNs (lucigenin); type: cell-based, human; conditions: SOD 500 U/ml, DPI 10 μM/L, apocyanin 90 μmol/L, about 15 minutes preincubation; 100 nmol LacCer 20 minutes
[14] = tested on: PMN adhesion to unstimulated endothelial cells; assay: PMN-endothelial adhesion assay; type: cell-based, human; conditions: 100 nmol/L LacCer; anti-CD18 5 μg/ml; quinacrine increasing doses
Method: 12. PMN-Endothelial Adhesion Assay. PMNs were labeled fluorescently by incubation with 5 μmol/L Calcein-AM (Molecular Probes) in calcium-free PBS for 20 minutes at 37° C., washed and resuspended in Hanks' balanced salt solution (Gibco) containing 0.2% bovine serum albumin (BSA). These PMNs were then treated with LacCer (or vehicle, 0.05% DMSO), washed 3 times with PBS and then plated on the unstimulated ec monolayers, which had been grown to confluence in 24-well plates. The PMNs (600 μL of 2×10^6 /mL/well) then were incubated with the ecs for 30 minutes at 37° C. Non-adherent PMNs were then removed by gentle washing 3 times with PBS. The residual adherent PMNs (and ecs) were then lysed using 4mmol/L Zwittergent Calbiochem, La Jolla, Calif.) and the plates read on a fluorescence plate reader (Millipore) at EX 480 nm/EM 530 nm. The number of adherent PMNs were expressed as number of PMN/mm^2 ec monolayer, based on the mean fluorescent intensity of each PMN, as determined from a standard curve. 13. Additional Methods. LacCer, ceramide and […] (all from Sigma) were prepared as described in examples below, and used as putative agonists for the stimulation of PMN adhesion molecule expression, assayed by FACScan. […]

[15] = inhibitor 20 minutes, then 100 nmol/L LacCer 20 minutes, BPB 10 μmol/L
[16] = endothelial cells preincubated with D-PDMP
[17] = balloon angioplasty, 10 mg/kg intramuscular from 24 hours prior, continued for 15 days
[18] = endothelial cells, TNF-α as stimulant

In the case of `CC(=O)OCOC(=O)CN(CC(=O)OCOC(C)=O)c1ccccc1OCCOc1ccccc1N(CC(=O)OCOC(C)=O)CC(=O)OCOC(C)=O` [BAPTA/AM], the “effect on LacCer-stimulated Mac-1 upregulation on PMNs” value (“effect … on PMNs” below) [1, 15] was “did not inhibit”.
For `CCCCCCCCCC(=O)N[C@H](CN1CCOCC1)[C@H](O)c1ccccc1` [D-PDMP, (1R, 2R)-1-phenyl-2-decanoylamino-3-morpholino-1-propanol], the “intimal proliferation at the site of balloon angioplasty” value [2] is given as “complete absence of intimal proliferation”, the “proliferation of vascular cells” value [3] is given as “reduces” and the “GalT-2 activity induced by TNF-α” value [4, 16] is given as “concentration-dependent decrease”. For the same compound, the “decrease of GalT-2 activity versus vehicle” value [5] was ~ 1.7 fold, the “ICAM-1 expression induced by TNF-α” value [6, 16] was “concentration-dependent decrease” and the “inhibition of GlcT-1” value [7] was “inhibits”. For the same compound, the “level of GicCer and LacCer” value ([8]; 10 mg/kg intramuscular, 15 days) was “decrease significantly”, the “GSL Concentration GlcCer” value [8, 17] was 6 μg/gm wet weight and the “GSL Concentration LacCer” value [8, 17] was 10 μg/gm wet weight.
For `c1ccc2c(c1)[I+]c1ccccc1-2` [DPI, diphenyleneiodonium chloride], the “effect on LacCer induced generation of O2- in endothelial cells” value (“effect on LacCer induced generation” below) [9] was “failed to respond”, the “effect on neutrophil ROM generation induced by LacCer” value [10] was “completely blocked” and the “effect on LacCer-induced neutrophil adhesion” value [11] was “attenuated”. The “effect on LacCer mediated stimulation of ICAM-1 expression” value (shortened to “effect on LacCer mediated stimulation”) [6] was “inhibited”, the “effect … on PMNs” value [1] was “did not inhibit” and the “effect on NADPH oxidase activity in membrane preparations of LacCer stimulated cells” value [12] was “attenuated”. The “effect on LacCer induced superoxide generation in PMNs” value [13] was “relatively less inhibitory”.
With `CC(=O)N[C@@H](CS)C(=O)O` [NAC, N-acetylcysteine] the “effect on LacCer induced generation” value [9] was “reduced”, the “effect on neutrophil ROM generation induced by LacCer” value [10] was “inhibited” and the “effect on LacCer-induced neutrophil adhesion” value [11] was “attenuated”. For the same compound, the “effect on LacCer mediated stimulation” value [6] was “inhibited” and the “effect … on PMNs” value [1, 15] was “did not inhibit”.
In the case of `S=C(S)N1CCCC1` [PDTC], the “effect on LacCer mediated stimulation” value [6] was “inhibited”.
In the case of `Cc1nnc2n1-c1sc(CCC(=O)N3CCOCC3)cc1C(c1ccccc1Cl)=NC2` [WEB 2086], the “effect … on PMNs” value [1] was “No significant inhibition”.
In the case of `Oc1ncnc2[nH]ncc12` [allopurinol], the “effect on LacCer induced generation” value [9] was “failed to inhibit”.
In the case of `COc1cc(C(C)=O)ccc1O` [apocyanin], the “effect on LacCer induced superoxide generation in PMNs” value [13] was “relatively less inhibitory”.
With `O=c1c(-c2ccc(O)cc2)coc2cc(O)cc(O)c12` [genistein] the “effect … on PMNs” value [1, 15] was “did not inhibit”.
For `CCN(CC)CCCC(C)Nc1c2ccc(Cl)cc2nc2ccc(OC)cc12` (centres unmarked) [quinacrine, quinacrine dihydrochloride], the “effect on LacCer induced PMN adhesion” value [14] was “inhibited” and the “effect … on PMNs” value [1, 15] was “did block”.
In the case of `C=C(C)[C@H]1Cc2c(ccc3c2O[C@@H]2COc4cc(OC)c(OC)cc4[C@@H]2C3=O)O1` [rotenone], the “effect on NADPH oxidase activity in membrane preparations of LacCer stimulated cells” value ([12]; DPI 10 μM 30 minutes, rotenone 1 mM) was “did not inhibit”.
For `CN[C@@H]1C[C@H]2O[C@@](C)([C@@H]1OC)n1c3ccccc3c3c4c(c5c6ccccc6n2c5c31)C(=O)NC4` [staurosporine], the “effect … on PMNs” value [1] was “did not inhibit”.
For TNF-α, the “increase in GalT-2 activity” value [4, 18] was 1.7 fold and the “stimulation of ICAM-1 expression” value [6, 18] was “concentration-dependent stimulation”.
In the case of ceramide, the “Mac-1 expression on PMNs, other GSL” value [1] was “did not alter”.
With glucosylceramide [GIcCer] the “Mac-1 expression on PMNs, other GSL” value [1] was “did not alter”.
